Tests used:
[1] = test system: MC3T3-E1 pre-osteoblast cells
Text: FIG. 14A is a graph showing in vitro testing with MC3T3-E1 pre-osteoblast cells to establish cytotoxicity of hydrogen peroxide.
FIG. 14B is a graph showing in vitro testing with MC3T3-E1 pre-osteoblast cells to establish cytotoxicity of ethyl pyruvate.
(§1) As shown in FIGS. 14A and 14B, in vitro cytotoxicity profiles were first established for H2O2 and ethyl pyruvate with MC3T3-E1 pre-osteoblast cells.

MC3T3-E1 cells = type: cell-based; details: MC3T3-E1, + 1 mM H2O2
Text: FIG. 14C is a graph showing a cell saving study capability test of released ethyl pyruvate and degraded ethyl pyruvate.
as §1

[2] = cited from earlier work
[3] = EPTK degradation and ethyl pyruvate release in H2O2 (NMR, HPLC); type: physicochemical
Text: FIG. 13B is an NMR spectrum of the thioketal peak after three days of degradation in varying ROS concentrations
A new thioketal linker was synthesized containing the small molecule therapeutic ethyl pyruvate (FIG. 12).

OO [H2O2, hydrogen peroxide]
cell death ([1]; dose of 1 mM, over 24 hrs, MC3T3-E1): ~50%

CCOC(=O)C(C)=O [ethyl pyruvate]
dose at which toxicity is displayed ([1]; mouse): ≥ 10 mM
protection of cells from oxidative toxicity (MC3T3-E1 cells): robust protection

Cc1ccc(C(=O)c2ccc(CC(=O)O)n2C)cc1 [tolmetin]
Log P [2]: 2.07

ethyl pyruvate thioketal [EPTK]
release of intact ethyl pyruvate ([3]; 200 mM H2O2 for 48 hrs, HPLC): intact ethyl pyruvate matching the original drug's character was released
degradation of thioketal bond ([3]; escalating doses of H2O2, NMR, three days): dose-dependent degradation
rate of ethyl pyruvate release ([3]; increasing doses of ROS): increased the rate of ethyl pyruvate release
protection of cells from oxidative toxicity (MC3T3-E1 cells): some inherent antioxidant protection

CC(=O)[C@H]1CC[C@H]2[C@@H]3CCC4=CC(=O)CC[C@]4(C)[C@H]3CC[C@]12C [progesterone]
Log P [2]: 3.78

— US20240408271A1, “Functionalized Linkers in Responsive Biomaterials” (priority 2021, published 2024)
